Experimental data reported in patent US20260070945A1, “MACROCYCLIC IMMUNOMODULATORS” (Bristol-Myers Squibb Company, priority 2022, published 2026).
Where a SMILES comes first, the peptide text is derived from it. Bridges are numbered along the chain shown (N, C = ends). [ ]: non-standard residue; d: D form. The star is where a group is joined. ξ: configuration not given here. Phe(4-COOH) = N[C@@H](Cc1ccc(C(=O)O)cc1)C(=O)O; Bip = N[C@@H](Cc1ccc(-c2ccccc2)cc1)C(=O)O; Phe(3-Me) = Cc1cccc(C[C@H](N)C(=O)O)c1; Cha = N[C@@H](CC1CCCCC1)C(=O)O; Cit = NC(=O)NCCC[C@H](N)C(=O)O; Ile(3ξ) = CCC(C)[C@H](N)C(=O)O; Thr(3ξ) = CC(O)[C@H](N)C(=O)O; hSer = N[C@@H](CCO)C(=O)O; Carboxymethyl = O=C(O)C*; NMeA = CN[C@@H](C)C(=O)O; Aun = NCCCCCCCCCCC(=O)O; Dab = NCC[C@H](N)C(=O)O; AEEA = NCCOCCOCC(=O)O

These molecules were tested against T1, PD-1/PD-L1 interaction (PE-labeled human PD-L1-Ig binding to Jurkat cell line over-expressing human PD-1) (Homo sapiens, UniProt Q15116) (assay: Jurkat-PD-1 Cell Binding High-Content Screening Assay (CBA)). Details: Jurkat-hPD-1 cells, PE-labeled PD-L1-Ig 20 nM final; read-out: Jurkat HPD1 PDL1 IC50.
T1 construct: expressed in transfected cells; host or cells: Jurkat
How it was run: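 Compound is added first to the PD-1-expressing Jurkat cells and held 2 h at 37 °C in serum-containing DMEM. The fluorescent PD-L1 fusion follows at 20 nM final for 1 h. Fixed, Hoechst-stained cells are then imaged for bound label.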

T1 sequence (Q15116 25-288): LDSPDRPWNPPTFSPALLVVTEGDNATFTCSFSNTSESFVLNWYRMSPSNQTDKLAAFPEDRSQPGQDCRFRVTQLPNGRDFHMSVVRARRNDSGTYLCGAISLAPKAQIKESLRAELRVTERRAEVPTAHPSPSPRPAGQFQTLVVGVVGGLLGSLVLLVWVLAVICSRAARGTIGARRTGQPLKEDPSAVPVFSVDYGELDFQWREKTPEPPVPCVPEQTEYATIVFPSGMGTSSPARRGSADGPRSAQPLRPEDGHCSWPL

Row | Compound | IC50 [nM]
1 | CC(C)C[C@H]1NC(=O)[C@H](C)N(C)C(=O)[C@H](CCCNC(N)=O)NC(=O)[C@H](Cc2ccc(-c3ccccc3)cc2)NC(=O)[C@H](C(C)C)NC(=O)[C@H](Cc2c[nH]c3ccccc23)NC(=O)[C@H](CC(=O)O)NC(=O)[C@H](Cc2ccc(OCC(=O)O)cc2)NC(=O)[C@H](Cc2ccc(OCC(=O)O)cc2)NC(=O)CSC[C@@H](C(=O)NCCOCCOCC(=O)NCCCCCCCCCCC(=O)O)NC(=O)[C@H](CCO)NC(=O)[C@H](C(C)C)NC(=O)[C@H](CC2CCCCC2)NC(=O)[C@H](CCN)NC1=O [Example 2319] ({CH2CO}-Y(Carboxymethyl)Y(Carboxymethyl)DWV[Bip][Cit][NMeA][dL][Dab][Cha]V[hSer]C[AEEA][Aun]-OH; thioether N-14) | 15.6
2 | Cc1cccc(C[C@@H]2NC(=O)[C@H](CC(=O)O)NC(=O)[C@H](Cc3ccc(C(=O)O)cc3)NC(=O)[C@H](Cc3ccc(OCC(=O)O)cc3)NC(=O)CSC[C@@H](C(=O)N[C@@H](CCN)C(=O)NCCCCCCCCCCC(=O)O)NC(=O)[C@H](C(C)O)NC(=O)[C@H](C(C)C)NC(=O)[C@H](CC3CCCCC3)NC(=O)[C@H](CCN)NC(=O)[C@@H](CC(C)C)NC(=O)[C@H](C)N(C)C(=O)[C@H](C(C)C)NC(=O)[C@H](Cc3ccc(-c4ccccc4)cc3)NC(=O)[C@H](CC(C)C)NC2=O)c1 (stereo partly drawn) [Example 2323] ({CH2CO}-Y(Carboxymethyl)[Phe(4-COOH)]D[Phe(3-Me)]L[Bip]V[NMeA][dL][Dab][Cha]V[Thr(3ξ)]C[Dab][Aun]-OH; thioether N-14) | 25.6
3 | Cc1cccc(C[C@@H]2NC(=O)[C@H](CC(=O)O)NC(=O)[C@H](Cc3ccc(C(=O)O)cc3)NC(=O)[C@H](Cc3ccc(OCC(=O)O)cc3)NC(=O)CSC[C@@H](C(=O)N[C@@H](CCN)C(=O)NCCCCCCCCCCC(=O)O)NC(=O)[C@H](C(C)O)NC(=O)[C@H](C(C)C)NC(=O)[C@H](CC3CCCCC3)NC(=O)[C@H](CCN)NC(=O)[C@@H](CC(C)C)NC(=O)[C@H](C)N(C)C(=O)[C@H](CCCNC(N)=O)NC(=O)[C@H](Cc3ccc(-c4ccccc4)cc3)NC(=O)[C@H](CC(C)C)NC2=O)c1 (stereo partly drawn) [Example 2324] ({CH2CO}-Y(Carboxymethyl)[Phe(4-COOH)]D[Phe(3-Me)]L[Bip][Cit][NMeA][dL][Dab][Cha]V[Thr(3ξ)]C[Dab][Aun]-OH; thioether N-14) | 12.8
4 | Cc1cccc(C[C@@H]2NC(=O)[C@H](CC(=O)O)NC(=O)[C@H](Cc3ccc(C(=O)O)cc3)NC(=O)[C@H](Cc3ccc(OCC(=O)O)cc3)NC(=O)CSC[C@@H](C(=O)N[C@H](CC(N)=O)C(=O)NCCCCCCCCCCC(=O)O)NC(=O)[C@H](C(C)O)NC(=O)[C@H](C(C)C)NC(=O)[C@H](CC3CCCCC3)NC(=O)[C@H](CCN)NC(=O)[C@@H](CC(C)C)NC(=O)[C@H](C)N(C)C(=O)[C@H](C(C)C)NC(=O)[C@H](Cc3ccc(-c4ccccc4)cc3)NC(=O)[C@H](CC(C)C)NC2=O)c1 (stereo partly drawn) [Example 2326] ({CH2CO}-Y(Carboxymethyl)[Phe(4-COOH)]D[Phe(3-Me)]L[Bip]V[NMeA][dL][Dab][Cha]V[Thr(3ξ)]C[dN][Aun]-OH; thioether N-14) | 41.3
5 | Cc1cccc(C[C@@H]2NC(=O)[C@H](CC(=O)O)NC(=O)[C@H](Cc3ccc(C(=O)O)cc3)NC(=O)[C@H](Cc3ccc(OCC(=O)O)cc3)NC(=O)CSC[C@@H](C(=O)N[C@H](CC(N)=O)C(=O)NCCCCCCCCCCC(=O)O)NC(=O)[C@H](C(C)O)NC(=O)[C@H](C(C)C)NC(=O)[C@H](CC3CCCCC3)NC(=O)[C@H](CCN)NC(=O)[C@@H](CC(C)C)NC(=O)[C@H](C)N(C)C(=O)[C@H](CCCNC(N)=O)NC(=O)[C@H](Cc3ccc(-c4ccccc4)cc3)NC(=O)[C@H](CC(C)C)NC2=O)c1 (stereo partly drawn) [Example 2327] ({CH2CO}-Y(Carboxymethyl)[Phe(4-COOH)]D[Phe(3-Me)]L[Bip][Cit][NMeA][dL][Dab][Cha]V[Thr(3ξ)]C[dN][Aun]-OH; thioether N-14) | 13
6 | Cc1cccc(C[C@@H]2NC(=O)[C@H](CC(=O)O)NC(=O)[C@H](Cc3ccc(C(=O)O)cc3)NC(=O)[C@H](Cc3ccc(OCC(=O)O)cc3)NC(=O)CSC[C@@H](C(=O)NCCCCCCCCCCC(=O)O)NC(=O)[C@H](C(C)O)NC(=O)[C@H](C(C)C)NC(=O)[C@H](CC3CCCCC3)NC(=O)[C@H](CCN)NC(=O)[C@@H](CC(C)C)NC(=O)[C@H](C)N(C)C(=O)[C@H](Cc3ccc(O)cc3)NC(=O)[C@H](Cc3ccc(-c4ccccc4)cc3)NC(=O)[C@H](CC(C)C)NC2=O)c1 (stereo partly drawn) [Example 2329] ({CH2CO}-Y(Carboxymethyl)[Phe(4-COOH)]D[Phe(3-Me)]L[Bip]Y[NMeA][dL][Dab][Cha]V[Thr(3ξ)]C[Aun]-OH; thioether N-14) | 195
7 | Cc1cccc(C[C@@H]2NC(=O)[C@H](CC(=O)O)NC(=O)[C@H](Cc3ccc(C(=O)O)cc3)NC(=O)[C@H](Cc3ccc(OCC(=O)O)cc3)NC(=O)CSC[C@@H](C(=O)NCCCCCCCCCCC(=O)O)NC(=O)[C@H](C(C)O)NC(=O)[C@H](C(C)C)NC(=O)[C@H](CC3CCCCC3)NC(=O)[C@H](CCN)NC(=O)[C@@H](CC(C)C)NC(=O)[C@H](C)N(C)C(=O)[C@H](Cc3ccc(O)cc3)NC(=O)[C@H](Cc3ccc(-c4ccccc4)cc3)NC(=O)[C@H](Cc3ccc(O)cc3)NC2=O)c1 (stereo partly drawn) [Example 2331] ({CH2CO}-Y(Carboxymethyl)[Phe(4-COOH)]D[Phe(3-Me)]Y[Bip]Y[NMeA][dL][Dab][Cha]V[Thr(3ξ)]C[Aun]-OH; thioether N-14) | 160
8 | Cc1cccc(C[C@@H]2NC(=O)[C@H](CC(=O)O)NC(=O)[C@H](Cc3ccc(C(=O)O)cc3)NC(=O)[C@H](Cc3ccc(OCC(=O)O)cc3)NC(=O)CSC[C@@H](C(=O)NCCCCCCCCCCC(=O)O)NC(=O)[C@H](C(C)O)NC(=O)[C@H](C(C)C)NC(=O)[C@H](CC3CCCCC3)NC(=O)[C@H](CCN)NC(=O)[C@@H](CC(C)C)NC(=O)[C@H](C)N(C)C(=O)[C@H](Cc3ccc(C(=O)O)cc3)NC(=O)[C@H](Cc3ccc(-c4ccccc4)cc3)NC(=O)[C@H](CC(C)C)NC2=O)c1 (stereo partly drawn) [Example 2332] ({CH2CO}-Y(Carboxymethyl)[Phe(4-COOH)]D[Phe(3-Me)]L[Bip][Phe(4-COOH)][NMeA][dL][Dab][Cha]V[Thr(3ξ)]C[Aun]-OH; thioether N-14) | 343

Results, then the molecule that gave them:

Row | IC50 [nM] | Compound
9 | 7.1 | Cc1cccc(C[C@@H]2NC(=O)[C@H](CC(=O)O)NC(=O)[C@H](Cc3ccc(OCC(=O)O)cc3)NC(=O)[C@H](C(C)O)NC(=O)CSC[C@@H](C(=O)NCCOCCOCC(=O)NCCCCCCCCCCC(=O)O)NC(=O)[C@H](C(C)O)NC(=O)[C@H](C(C)C)NC(=O)[C@H](CC3CCCCC3)NC(=O)[C@H](CCN)NC(=O)[C@@H](CC(C)C)NC(=O)[C@H](C)N(C)C(=O)[C@H](CCCNC(N)=O)NC(=O)[C@H](Cc3ccc(-c4ccccc4)cc3)NC(=O)[C@H](C(C)C)NC2=O)c1 (stereo partly drawn) [Example 2320] ({CH2CO}-[Thr(3ξ)]Y(Carboxymethyl)D[Phe(3-Me)]V[Bip][Cit][NMeA][dL][Dab][Cha]V[Thr(3ξ)]C[AEEA][Aun]-OH; thioether N-14)
10 | 5.8 | CC(=O)NCCCC[C@@H]1NC(=O)[C@H](Cc2ccc(-c3ccccc3)cc2)NC(=O)[C@H](C(C)C)NC(=O)[C@H](Cc2c[nH]c3ccccc23)NC(=O)[C@H](CC(=O)O)NC(=O)[C@H](Cc2ccc(OCC(=O)O)cc2)NC(=O)[C@H](Cc2ccc(OCC(=O)O)cc2)NC(=O)CSC[C@@H](C(=O)NCCOCCOCC(=O)NCCCCCCCCCCC(=O)O)NC(=O)[C@H](C(C)O)NC(=O)[C@H](C(C)C)NC(=O)[C@H](CC2CCCCC2)NC(=O)[C@H](CCN)NC(=O)[C@@H](CC(C)C)NC(=O)[C@H](C)N(C)C1=O (stereo partly drawn) [Example 2321] ({CH2CO}-Y(Carboxymethyl)Y(Carboxymethyl)DWV[Bip]K(Ac)[NMeA][dL][Dab][Cha]V[Thr(3ξ)]C[AEEA][Aun]-OH; thioether N-14)
11 | 30 | Cc1cccc(C[C@@H]2NC(=O)[C@H](CC(=O)O)NC(=O)[C@H](Cc3ccc(C(=O)O)cc3)NC(=O)[C@H](Cc3ccc(OCC(=O)O)cc3)NC(=O)CSC[C@@H](C(=O)NCCOCCOCC(=O)NCCCCCCCCCCC(=O)O)NC(=O)[C@H](C(C)O)NC(=O)[C@H](C(C)C)NC(=O)[C@H](CC3CCCCC3)NC(=O)[C@H](CCN)NC(=O)[C@@H](CC(C)C)NC(=O)[C@H](C)N(C)C(=O)[C@H](C(C)C)NC(=O)[C@H](Cc3ccc(-c4ccccc4)cc3)NC(=O)[C@H](CC(C)C)NC2=O)c1 (stereo partly drawn) [Example 2325] ({CH2CO}-Y(Carboxymethyl)[Phe(4-COOH)]D[Phe(3-Me)]L[Bip]V[NMeA][dL][Dab][Cha]V[Thr(3ξ)]C[AEEA][Aun]-OH; thioether N-14)
12 | 19.5 | CCC(C)[C@@H]1NC(=O)[C@H](Cc2ccc(-c3ccccc3)cc2)NC(=O)[C@H](C(C)C)NC(=O)[C@H](Cc2cccc(C)c2)NC(=O)[C@H](CC(=O)O)NC(=O)[C@H](Cc2ccc(OCC(=O)O)cc2)NC(=O)[C@H](C(C)O)NC(=O)CSC[C@@H](C(=O)NCCOCCOCC(=O)NCCCCCCCCCCC(=O)O)NC(=O)[C@H](C(C)O)NC(=O)[C@H](C(C)C)NC(=O)[C@H](CC2CCCCC2)NC(=O)[C@H](CCN)NC(=O)[C@@H](CC(C)C)NC(=O)[C@H](C)N(C)C1=O (stereo partly drawn) [Example 2328] ({CH2CO}-[Thr(3ξ)]Y(Carboxymethyl)D[Phe(3-Me)]V[Bip][Ile(3ξ)][NMeA][dL][Dab][Cha]V[Thr(3ξ)]C[AEEA][Aun]-OH; thioether N-14)
13 | 38.1 | Cc1cccc(C[C@@H]2NC(=O)[C@H](CC(=O)O)NC(=O)[C@H](Cc3ccc(C(=O)O)cc3)NC(=O)[C@H](Cc3ccc(OCC(=O)O)cc3)NC(=O)CSC[C@@H](C(=O)NCCCCCCCCCCC(=O)O)NC(=O)[C@H](C(C)O)NC(=O)[C@H](C(C)C)NC(=O)[C@H](CC3CCCCC3)NC(=O)[C@H](CCN)NC(=O)[C@@H](CC(C)C)NC(=O)[C@H](C)N(C)C(=O)[C@H](CCCNC(N)=O)NC(=O)[C@H](Cc3ccc(-c4ccccc4)cc3)NC(=O)[C@H](CC(C)C)NC2=O)c1 (stereo partly drawn) [Example 2330] ({CH2CO}-Y(Carboxymethyl)[Phe(4-COOH)]D[Phe(3-Me)]L[Bip][Cit][NMeA][dL][Dab][Cha]V[Thr(3ξ)]C[Aun]-OH; thioether N-14)
